Measurements taken from US20250161238A1, “NMDAR Antagonists Prevent Ageing and Aging-Associated Conditions and Diseases Through Increasing 20S Proteasome Activity” (priority 2022, published 2025).

Key:
[1] = tested on: human mesenchymal stem cells; assay: Lipid droplet amount in mesenchymal stem cells; type: cell-based; details: day 14
Description: Cell were harvested at day 14 for western blot and the protein expression amounts of the differentiation markers cd44, cd73, and cd90 were investigated. […] Another indicator of the stem cell differentiation is the determination of the amounts of lipid droplet in the cell. Fourteen-day cell passage is caused to increase lipid in the cell. It was observed that memantine treatment has prevented the amount of lipid droplet (FIG. 36D).

[2] = tested on: melanin and lipofuscin; assay: Melanin and lipofuscin staining of mouse tissues; type: in vivo; details: mice at 22 months
Description: Whole frozen tissues were sectioned with a microtome and fixed in 4% paraformaldehyde, Tissues were washed in PBS and the individual staining methods used in accordance with the manufacturer's recommendations. Total pixels from fluorescence in the images were quantified using Adobe Photoshop software CS2 (Adobe Systems), and normalized to a nuclear stain.

[3] = tested on: mice; assay: Kondziela's inverted screen test in aged mice; type: in vivo; details: mice at 22 months
Description: Kondziela's inverted screen test is one of tests which examine the muscle strength using all four limbs. Four limb-hanging test which is the Kondziella's inverted screen test represents a method to assess muscle strength using all four limbs grip and to determine the general condition during time. […] As a result, the test can provide important information about age-related neuromuscular decline.
The experimental protocols were approved by the Ethics Committee of Ankara University, Faculty of Medicine, Medical Sciences Experimental Research and Application Center (Date: Dec. 11, 2019 and Decision number: 2019-22-189). Adult (12-mounts-old) C57BL/6 mice (5 for each group) were used. The mice were housed at the Experimental Animal Research Laboratory of Ankara University Faculty of Medicine. Food and water were given without restriction. The ambient temperature was kept at 21±2° C., and locomotor activity tests were performed at this temperature. The animals were housed in a room with a 12-hour light/dark cycle. The procedures in the study were performed in accordance with the Ankara University Animal Care Committee according to international guidelines. Memantine (Sigma-Aldrich) was administered orally at 3 mg/Kg/per day with drinking water of one-year-old mice. Tests related to locomotor activities of the mice were recorded and available.
Inverted screen test described firstly Kondizela for muscle strength (Kondizela, 1964). The mouse was put on a center of the rectangular mesh screen (52 cm×32 cm) and the screen was rotated 180° over 2 seconds. The screen was held steadily 40-50 cm above a sawdust surface. Holding time were recorded for a maximum of 5 minutes. The inverted screen was scored previously by Deacon (Falling between 1-10 sec=1 Falling between 11-25 seconds=2 Falling between 26-60 seconds=3 Falling between 61-90 seconds=4 Falling after 90 seconds=5) (Deacon, 2013). According to previous studies, parameters such as Total mobility time % (Gleitz et al, 2017), the latency of falling time, and four limbs griping time (Roemers et al, 2019) were analyzed.

[4] = mice, 30 mg/kg dose; cited from earlier work

## CC12CC3CC(C)(C1)CC(N)(C3)C2 [memantine, 3,5-dimethyladamantan-1-amine]
[1]
  amount of lipid droplet: prevented
[2]
  amount of lipofuscin (liver): statistically decreased
  amount of melanin (skin): statistically decreased
[3]
  four fingers grip time: more than two times
  mobility time: more than twice as much
  time in the inverted frame (latency of falling, holding time): twice as long
[4]
  tolerability: well tolerated
